Source: patent US9340559B2, “Proteasome inhibitor delanzomib for use in the treatment of lupus” (Cephalon, Inc., priority 2011, dated 2016)

Experiments:
MRL/lpr mice [1] = assay: Luminex analysis of serum cytokines (IL-12p40/p70, IL-1β, TNFα), MRL/lpr mice; type: in vivo, mouse
Protocol: For the processing of serum samples for cytokine analysis, frozen plasma at −80° C. is thawed on ice, vortexed, and centrifuged for 10 minutes to remove debris and aggregates. A total of 25-50 μL of serum is used for Luminex® assays following the manufacturer's instructions. Ten different mouse cytokines are measured using the mouse cytokine 10-plex bead kit (Invitrogen, Carlsbad, Calif., no. LMC0001). Briefly, filter plates (Millipore, Billerica, Mass., no. MAIPSWU10), are pre-wet with 200 μL of wash solution (kit component) and 25 μL of beads are added per well. Serum samples are diluted and a total volume of 50 μL is added per well (ie, 25 μL of sample serum plus 25 μL of assay diluent as provided by the manufacturer). Plates with beads are incubated for 2 hours at room temperature (RT) on an orbital shaker in the dark. At the end of the incubation, plate(s) are washed twice in kit buffer, secondary biotinylated antibody is added at a 1:10 dilution (100 μL) in biotin diluent provided with the kit. Plates are incubated at RT for 1 hour in the dark then washed twice in kit buffer. Strepavidin in assay diluent is added at 100 μL per well, then incubated for 30 minutes at RT in the dark. The plates are washed 3 times then 100 μL of kit wash solution is added and agitated for 2-3 minutes at RT in the dark. Plates are run immediately following this incubation period on a Luminex xMAP 200 unit with data acquisition and analysis software (Invitrogen, San Diego, Calif., no. MAP0200). All bead washing is performed using a vacuum manifold unit (Pall, Ann Arbor, Mich. no. 5017). For all cytokine Luminex assays, values below the limit of detection set by the lowest point along the standard or set by the manufacturer are considered out of range and are not estimated, but assumed the lowest point along the standard curve for that particular assay.
Mice are tracked on an individual basis.
Vehicle alone is provided orally twice weekly (p.o.). Both proteasome inhibitors are suspended in the vehicle solution. […] In addition, urine proteinuria is determined for all animals.
Vehicle was 3% DMSO/10% Solutol/87% PBS.

MRL/lpr mice [2] = assay: Antinuclear antibody (ANA) ELISA (anti-chromatin, anti-Smith Ag, anti-dsDNA IgG), serum of MRL/lpr mice; type: in vivo, mouse
Text: For all ANA ELISA assays, values below the limit of detection set by the lowest point along the standard or set by the manufacturer are considered out of range and are not estimated, but assumed the lowest point along the standard curve for that particular assay.

NZM mice [3] = assay: Survival, NZM lupus nephritis model, ip dosing (Example 2); type: in vivo, mouse
NZM mice [4] = assay: Urinalysis: total urine protein (proteinuria), NZM mice (Example 2); type: in vivo, mouse
MRL/lpr mice [5] = assay: Urinalysis: urine leukocytes (leukouria), Uristix, MRL/lpr mice; type: in vivo, mouse
Protocol: Urine samples are acid precipitated for total protein recovery and analysis. Samples for which enough urine remained are used for Uristix® leukouria analysis. Briefly, a standard protein solution is prepared from normal mouse sera and is used as a standard for mouse urinary protein assay by turbidity. Standard preparation is as follows: 0, 5, 10, 15, 20, 30, 40, and 50 μL of a 4 mg/mL mouse sera standard protein solution as provided in the kit are added in duplicate into two columns. PBS is added to individual wells to adjust the final volume to 50 μL. For urine sample preparation, urine samples are centrifuged at 9880×g for 3 minutes using a tabletop micro-centrifuge. Urine supernatant (1-50 μL) is added in duplicate. PBS is added to adjust the volume to 50 μL total. For the turbidity assay: 25 μL of 0.1 N HCl is added into blank columns and 250 μL of 3% sulfosalicyclic acid into the test columns. The microplate is incubated for 10 minutes at RT and plates are read using an ELISA reader with single beam at 450 nm. For the Uristix® strip assay, strips are laid out and labeled. Twenty microliters of urine are placed onto each test strip square and incubated for at least 30 seconds before the result is recorded. For all total urine analysis plate-based assays, values below the limit of detection set by the lowest point along the standard or set by the manufacturer are considered out of range and are not estimated, but assumed the lowest point along the standard curve for that particular assay.

MRL/lpr mice [6] = assay: Spleen plasma cells by flow cytometry, MRL/lpr mice
NZM mice [7] = assay: Serum C3 complement ELISA, NZM mice (Example 2)

**Q.** For `CC(C)C[C@H](NC(=O)[C@H](Cc1ccccc1)NC(=O)c1cnccn1)B(O)O` [bortezomib, reference compound], which “Cytokine AUC serum IL-1β, percent change vs vehicle” value (MRL/lpr mice [1]; G4: 0.5 mg/kg iv, 1× wk) is on record?
**A.** −46%

**Q.** What about the “Cytokine AUC serum IL-12, percent change vs vehicle” value (MRL/lpr mice [1]; G4: 0.5 mg/kg iv, 1× wk) of the same compound?
**A.** −54%

**Q.** And the “Cytokine AUC serum TNFα, percent change vs vehicle” value (MRL/lpr mice [1]; G4: 0.5 mg/kg iv, 1× wk)?
**A.** −64%

**Q.** And the “Cytokine AUC serum IL-1β, percent change vs vehicle” value (MRL/lpr mice [1]; G5: 0.3 mg/kg iv, 2× wk)?
**A.** −51%

**Q.** What about the “Cytokine AUC serum IL-12, percent change vs vehicle” value (MRL/lpr mice [1]; G5: 0.3 mg/kg iv, 2× wk) of the same compound?
**A.** −54%

**Q.** And the “Cytokine AUC serum TNFα, percent change vs vehicle” value (MRL/lpr mice [1]; G5: 0.3 mg/kg iv, 2× wk)?
**A.** −71%

**Q.** What about the “ANA AUC Smith Ag, percent change vs vehicle” value (MRL/lpr mice [2]; G4: 0.5 mg/kg iv, 1× wk) of the same compound?
**A.** −84%

**Q.** And the “ANA AUC chromatin, percent change vs vehicle” value (MRL/lpr mice [2]; G4: 0.5 mg/kg iv, 1× wk)?
**A.** −82%

**Q.** And the “ANA AUC dsDNA, percent change vs vehicle” value (MRL/lpr mice [2]; G4: 0.5 mg/kg iv, 1× wk)?
**A.** −88%

**Q.** And the “ANA AUC Smith Ag, percent change vs vehicle” value (MRL/lpr mice [2]; G5: 0.3 mg/kg iv, 2× wk)?
**A.** −58%

**Q.** And the “ANA AUC chromatin, percent change vs vehicle” value (MRL/lpr mice [2]; G5: 0.3 mg/kg iv, 2× wk)?
**A.** −58%

**Q.** What about the “ANA AUC dsDNA, percent change vs vehicle” value (MRL/lpr mice [2]; G5: 0.3 mg/kg iv, 2× wk) of the same compound?
**A.** −76%

**Q.** And the “anti-Smith Ag IgG ANA level decrease vs vehicle at EOS” value (MRL/lpr mice [2]; Group 4)?
**A.** 74%

**Q.** And the “anti-dsDNA IgG ANA decrease vs vehicle” value (MRL/lpr mice [2]; Group 4 (iv))?
**A.** 82%

**Q.** And the “anti-dsDNA IgG ANA decrease vs vehicle” value (MRL/lpr mice [2]; Group 5 (iv))?
**A.** 58%

**Q.** And the “anti-chromatin IgG level decrease vs vehicle” value (MRL/lpr mice [2]; weekly bortezomib dose)?
**A.** 64%

**Q.** And the “EOS survival, percent live mice from original number” value (NZM mice [3]; G3 0.3 mg/kg ip, 1× wk)?
**A.** 58%

**Q.** And the “EOS survival, percent live mice from original number” value (NZM mice [3]; G4 0.3 mg/kg ip, 2× wk)?
**A.** 75%

**Q.** What about the “mice still alive at day 56” value (NZM mice [3]; both treatment groups of the substance) of the same compound?
**A.** 75%

**Q.** What about the “Urine proteinuria AUC, percent change vs vehicle” value (NZM mice [4]; G3 0.3 mg/kg ip, 1× wk) of the same compound?
**A.** 30%

**Q.** And the “Urine proteinuria AUC, percent change vs vehicle” value (NZM mice [4]; G4 0.3 mg/kg ip, 2× wk)?
**A.** −57%

**Q.** What about the “Urine AUC leukocytes, percent change vs vehicle” value (MRL/lpr mice [5]; G4: 0.5 mg/kg iv, 1× wk) of the same compound?
**A.** −78%

**Q.** What about the “Urine AUC leukocytes, percent change vs vehicle” value (MRL/lpr mice [5]; G5: 0.3 mg/kg iv, 2× wk) of the same compound?
**A.** −70%

**Q.** And the “EOS plasma cells, percent change vs vehicle” value (MRL/lpr mice [6]; G4: 0.5 mg/kg iv, 1× wk)?
**A.** −67%

**Q.** And the “EOS plasma cells, percent change vs vehicle” value (MRL/lpr mice [6]; G5: 0.3 mg/kg iv, 2× wk)?
**A.** −33%

**Q.** And the “spleen plasma cells decrease vs vehicle” value (MRL/lpr mice [6]; Group 4)?
**A.** 66%

**Q.** And the “spleen plasma cells decrease vs vehicle” value (MRL/lpr mice [6]; Group 5)?
**A.** 33%

**Q.** And the “Serum C3 complement AUC, percent change vs vehicle” value (NZM mice [7]; G3 0.3 mg/kg ip, 1× wk)?
**A.** 8%

**Q.** What about the “Serum C3 complement AUC, percent change vs vehicle” value (NZM mice [7]; G4 0.3 mg/kg ip, 2× wk) of the same compound?
**A.** −11%

**Q.** What does the source list for `C[C@@H]1C[C@H]2[C@@H]3CCC4=CC(=O)C=C[C@]4(C)[C@@]3(F)[C@@H](O)C[C@]2(C)[C@@]1(O)C(=O)CO` [dexamethasone, Dexamethasone, reference compound]?
**A.** Cytokine AUC serum IL-1β, percent change vs vehicle (MRL/lpr mice [1]; G6: 1.5 mg/kg ip, 3× wk): −44%; Cytokine AUC serum IL-12, percent change vs vehicle (MRL/lpr mice [1]; G6: 1.5 mg/kg ip, 3× wk): −74%; Cytokine AUC serum TNFα, percent change vs vehicle (MRL/lpr mice [1]; G6: 1.5 mg/kg ip, 3× wk): −87%; ANA AUC Smith Ag, percent change vs vehicle (MRL/lpr mice [2]; G6: 1.5 mg/kg ip, 3× wk): −45%; ANA AUC chromatin, percent change vs vehicle (MRL/lpr mice [2]; G6: 1.5 mg/kg ip, 3× wk): −47%; ANA AUC dsDNA, percent change vs vehicle (MRL/lpr mice [2]; G6: 1.5 mg/kg ip, 3× wk): −59%; EOS survival, percent live mice from original number (NZM mice [3]; G5 1.5 mg/kg ip, 3× wk): 10%; Urine proteinuria AUC, percent change vs vehicle (NZM mice [4]; G5 1.5 mg/kg ip, 3× wk): 27%; Urine AUC leukocytes, percent change vs vehicle (MRL/lpr mice [5]; G6: 1.5 mg/kg ip, 3× wk): −100%; EOS plasma cells, percent change vs vehicle (MRL/lpr mice [6]; G6: 1.5 mg/kg ip, 3× wk): +25%; Serum C3 complement AUC, percent change vs vehicle (NZM mice [7]; G5 1.5 mg/kg ip, 3× wk): 45%; p, serum C3 complement levels vs G6 Bortezomib 0.3 mg/kg 2× wk ip (NZM mice [7]; G8 1.5 mg/kg 3× wk ip): p < 0.05; p, serum C3 complement levels vs G7 CTX 50 mg/kg 1× wk ip (NZM mice [7]; G8 1.5 mg/kg 3× wk ip): p < 0.01
